Activity calls are given as the source filed them. The rule behind the calls is not given here.
Experiments:
HepG2 = test: Cytotoxicity against human HepG2 cells by MTT assay
Huh-7 = test: Cytotoxicity against human HuH7 cells by MTT assay
HUVEC [1] = test: cells; details: Homo sapiens, 72 h
Description: (§1) Antiproliferative activity against HUVEC after 72 hrs by MTT assay

[2] = biological target: T1, Bifunctional epoxide hydrolase 2 (Homo sapiens, UniProt P34913); test: Inhibition of human recombinant soluble epoxide hydrolase assessed as cyano(6-methoxy-naphthalen-2-yl)methyl trans-[(3-phenyloxyran-2-yl)methyl] carbonate conversion to 6-methoxy-2-naphthaldehyde preincubated for 5 mins prior to substrate addition by fluorescence assay
T1 sequence (P34913 whole entry): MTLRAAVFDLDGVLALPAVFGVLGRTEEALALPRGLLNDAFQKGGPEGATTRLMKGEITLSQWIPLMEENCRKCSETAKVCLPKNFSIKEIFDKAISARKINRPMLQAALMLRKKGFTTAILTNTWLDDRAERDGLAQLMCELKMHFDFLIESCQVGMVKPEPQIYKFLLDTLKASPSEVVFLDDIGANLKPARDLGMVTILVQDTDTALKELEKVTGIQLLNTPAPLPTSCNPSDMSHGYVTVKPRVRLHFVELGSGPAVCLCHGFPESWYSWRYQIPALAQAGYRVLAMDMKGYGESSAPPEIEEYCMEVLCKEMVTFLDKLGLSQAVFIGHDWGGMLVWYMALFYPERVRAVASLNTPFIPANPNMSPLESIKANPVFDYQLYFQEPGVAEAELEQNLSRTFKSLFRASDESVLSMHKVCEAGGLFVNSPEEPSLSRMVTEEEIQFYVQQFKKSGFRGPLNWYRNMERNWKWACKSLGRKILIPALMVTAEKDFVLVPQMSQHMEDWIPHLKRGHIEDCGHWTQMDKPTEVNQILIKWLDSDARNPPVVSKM

[3] = biological target: RAF proto-oncogene serine/threonine-protein kinase (Homo sapiens, UniProt P04049); test: Inhibition of full length recombinant c-RAF (unknown origin) using MEK1 as substrate after 1 hr by luminescence assay
Chain of RAF proto-oncogene serine/threonine-protein kinase (P04049 whole entry): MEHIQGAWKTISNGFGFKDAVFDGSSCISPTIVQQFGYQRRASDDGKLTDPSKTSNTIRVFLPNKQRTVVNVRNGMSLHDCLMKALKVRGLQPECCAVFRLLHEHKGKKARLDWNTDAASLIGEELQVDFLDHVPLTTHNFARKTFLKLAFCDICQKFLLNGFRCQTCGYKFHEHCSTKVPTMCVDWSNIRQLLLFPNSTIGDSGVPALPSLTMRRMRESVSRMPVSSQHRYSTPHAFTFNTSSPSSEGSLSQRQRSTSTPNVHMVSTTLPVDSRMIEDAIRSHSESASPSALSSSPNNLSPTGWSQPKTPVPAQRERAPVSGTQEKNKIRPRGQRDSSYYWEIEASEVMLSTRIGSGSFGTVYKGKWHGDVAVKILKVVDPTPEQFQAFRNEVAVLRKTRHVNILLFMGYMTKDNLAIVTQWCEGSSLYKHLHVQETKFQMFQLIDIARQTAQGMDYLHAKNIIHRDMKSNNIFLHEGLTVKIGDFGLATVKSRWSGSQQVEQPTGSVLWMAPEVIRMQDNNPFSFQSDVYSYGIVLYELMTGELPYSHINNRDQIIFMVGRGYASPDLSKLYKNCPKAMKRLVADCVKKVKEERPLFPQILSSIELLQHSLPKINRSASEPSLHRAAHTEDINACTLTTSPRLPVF

[4] = biological target: Vascular endothelial growth factor receptor 2 (Homo sapiens) (UniProt P35968); test: Inhibition of VEGFR-2 (unknown origin) at 10 uM after 1 hr by luminescence assay
Chain of Vascular endothelial growth factor receptor 2 (Homo sapiens) (P35968 whole entry): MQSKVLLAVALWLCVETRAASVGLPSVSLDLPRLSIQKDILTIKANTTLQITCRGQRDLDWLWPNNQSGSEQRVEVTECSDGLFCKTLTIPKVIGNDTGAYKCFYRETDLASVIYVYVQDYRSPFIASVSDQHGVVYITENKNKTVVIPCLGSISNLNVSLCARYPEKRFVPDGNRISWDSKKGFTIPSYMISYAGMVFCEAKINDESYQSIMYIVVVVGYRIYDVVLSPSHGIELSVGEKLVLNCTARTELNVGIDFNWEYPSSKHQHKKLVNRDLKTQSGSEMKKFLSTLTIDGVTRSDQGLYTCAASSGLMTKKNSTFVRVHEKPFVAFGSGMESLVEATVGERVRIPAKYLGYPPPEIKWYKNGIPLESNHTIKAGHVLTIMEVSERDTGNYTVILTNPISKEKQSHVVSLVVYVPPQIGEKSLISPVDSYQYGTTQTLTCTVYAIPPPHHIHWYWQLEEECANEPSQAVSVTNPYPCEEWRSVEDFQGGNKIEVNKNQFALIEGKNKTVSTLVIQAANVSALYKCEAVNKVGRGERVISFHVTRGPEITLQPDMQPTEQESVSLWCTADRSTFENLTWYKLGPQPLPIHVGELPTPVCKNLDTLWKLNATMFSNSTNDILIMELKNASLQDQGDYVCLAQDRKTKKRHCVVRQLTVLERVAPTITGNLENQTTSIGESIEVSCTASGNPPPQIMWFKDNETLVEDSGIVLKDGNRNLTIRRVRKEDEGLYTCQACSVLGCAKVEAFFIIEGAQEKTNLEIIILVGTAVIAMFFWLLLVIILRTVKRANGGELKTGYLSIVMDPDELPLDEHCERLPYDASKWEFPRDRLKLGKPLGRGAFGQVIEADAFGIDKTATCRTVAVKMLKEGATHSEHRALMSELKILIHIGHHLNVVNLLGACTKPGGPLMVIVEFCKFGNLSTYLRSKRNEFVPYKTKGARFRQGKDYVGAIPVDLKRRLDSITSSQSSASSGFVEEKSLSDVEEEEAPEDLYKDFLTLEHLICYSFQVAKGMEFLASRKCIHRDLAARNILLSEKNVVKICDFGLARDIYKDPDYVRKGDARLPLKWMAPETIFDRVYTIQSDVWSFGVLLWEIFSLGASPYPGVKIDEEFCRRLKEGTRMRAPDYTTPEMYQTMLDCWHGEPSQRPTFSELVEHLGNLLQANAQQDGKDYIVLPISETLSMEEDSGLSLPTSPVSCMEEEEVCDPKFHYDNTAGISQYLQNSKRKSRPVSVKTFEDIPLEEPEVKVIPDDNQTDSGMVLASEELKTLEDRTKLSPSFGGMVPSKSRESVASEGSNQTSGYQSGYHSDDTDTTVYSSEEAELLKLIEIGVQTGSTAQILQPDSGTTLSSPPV

[5] = biological target: Serine/threonine-protein kinase B-raf (Homo sapiens, UniProt P15056, V600E); test: Inhibition of B-RAF V600E mutant (unknown origin) using MEK1 as substrate
Chain of Serine/threonine-protein kinase B-raf (P15056 2-766 V600E limits assumed): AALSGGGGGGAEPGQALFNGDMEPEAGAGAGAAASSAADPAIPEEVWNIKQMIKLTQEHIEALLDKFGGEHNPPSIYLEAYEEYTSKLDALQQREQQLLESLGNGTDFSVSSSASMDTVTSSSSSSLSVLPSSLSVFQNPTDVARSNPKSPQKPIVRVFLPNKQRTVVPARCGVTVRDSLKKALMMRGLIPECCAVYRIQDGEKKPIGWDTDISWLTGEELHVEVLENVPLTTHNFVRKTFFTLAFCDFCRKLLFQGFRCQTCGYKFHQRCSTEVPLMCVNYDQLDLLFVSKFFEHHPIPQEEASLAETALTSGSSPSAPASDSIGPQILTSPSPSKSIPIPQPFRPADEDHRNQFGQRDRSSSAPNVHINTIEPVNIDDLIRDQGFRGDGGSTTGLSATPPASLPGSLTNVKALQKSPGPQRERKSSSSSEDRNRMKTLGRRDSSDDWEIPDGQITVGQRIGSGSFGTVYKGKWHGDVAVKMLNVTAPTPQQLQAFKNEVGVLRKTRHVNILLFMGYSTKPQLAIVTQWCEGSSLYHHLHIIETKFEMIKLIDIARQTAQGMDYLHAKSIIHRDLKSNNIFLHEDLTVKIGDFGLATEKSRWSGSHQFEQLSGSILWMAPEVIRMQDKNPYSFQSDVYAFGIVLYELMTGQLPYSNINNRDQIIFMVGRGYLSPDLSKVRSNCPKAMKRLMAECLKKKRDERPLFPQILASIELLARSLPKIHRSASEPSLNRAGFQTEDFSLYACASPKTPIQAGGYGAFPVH

[6] = biological target: T2, 3-phosphoinositide-dependent protein kinase 1 (Homo sapiens) (UniProt O15530); test: Inhibition of recombinant PDPK-1 (unknown origin) at 10 uM
T2 sequence (whole entry): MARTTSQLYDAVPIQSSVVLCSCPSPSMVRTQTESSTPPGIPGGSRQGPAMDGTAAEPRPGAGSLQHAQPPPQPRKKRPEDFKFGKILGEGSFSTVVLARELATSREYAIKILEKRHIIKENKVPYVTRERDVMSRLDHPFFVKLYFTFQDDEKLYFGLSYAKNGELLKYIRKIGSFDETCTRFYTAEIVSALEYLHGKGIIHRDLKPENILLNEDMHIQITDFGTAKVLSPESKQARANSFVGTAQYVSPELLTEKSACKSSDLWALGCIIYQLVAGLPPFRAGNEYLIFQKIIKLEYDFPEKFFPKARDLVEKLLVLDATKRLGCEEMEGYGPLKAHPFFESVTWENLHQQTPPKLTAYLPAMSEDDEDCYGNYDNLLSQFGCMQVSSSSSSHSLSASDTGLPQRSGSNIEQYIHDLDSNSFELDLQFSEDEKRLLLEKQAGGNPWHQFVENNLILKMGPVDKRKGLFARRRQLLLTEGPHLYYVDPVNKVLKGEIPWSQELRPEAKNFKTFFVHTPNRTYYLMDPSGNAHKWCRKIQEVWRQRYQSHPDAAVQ

[7] = biological target: Tyrosine-protein kinase ABL2 (Homo sapiens) (UniProt P42684); test: Inhibition of recombinant ABL-2 (unknown origin) at 10 uM
[8] = biological target: Glycogen synthase kinase-3 alpha (Homo sapiens) (UniProt P49840); test: Inhibition of recombinant GSK3alpha (unknown origin) at 10 uM
[9] = biological target: Vascular endothelial growth factor receptor 1 (Homo sapiens) (UniProt P17948); test: Inhibition of recombinant FLT-1 (unknown origin) at 10 uM
[10] = biological target: Vascular endothelial growth factor receptor 2 (Homo sapiens) (UniProt P35968); test: Inhibition of recombinant KDR (unknown origin) at 10 uM
[11] = biological target: Platelet-derived growth factor receptor beta (Homo sapiens) (UniProt P09619); test: Inhibition of recombinant PDGFRbeta (unknown origin) at 10 uM
[12] = biological target: Platelet-derived growth factor receptor alpha (Homo sapiens) (UniProt P16234); test: Inhibition of recombinant PDGFRalpha (unknown origin) at 10 uM
Chain of Platelet-derived growth factor receptor alpha (Homo sapiens) (P16234 whole entry): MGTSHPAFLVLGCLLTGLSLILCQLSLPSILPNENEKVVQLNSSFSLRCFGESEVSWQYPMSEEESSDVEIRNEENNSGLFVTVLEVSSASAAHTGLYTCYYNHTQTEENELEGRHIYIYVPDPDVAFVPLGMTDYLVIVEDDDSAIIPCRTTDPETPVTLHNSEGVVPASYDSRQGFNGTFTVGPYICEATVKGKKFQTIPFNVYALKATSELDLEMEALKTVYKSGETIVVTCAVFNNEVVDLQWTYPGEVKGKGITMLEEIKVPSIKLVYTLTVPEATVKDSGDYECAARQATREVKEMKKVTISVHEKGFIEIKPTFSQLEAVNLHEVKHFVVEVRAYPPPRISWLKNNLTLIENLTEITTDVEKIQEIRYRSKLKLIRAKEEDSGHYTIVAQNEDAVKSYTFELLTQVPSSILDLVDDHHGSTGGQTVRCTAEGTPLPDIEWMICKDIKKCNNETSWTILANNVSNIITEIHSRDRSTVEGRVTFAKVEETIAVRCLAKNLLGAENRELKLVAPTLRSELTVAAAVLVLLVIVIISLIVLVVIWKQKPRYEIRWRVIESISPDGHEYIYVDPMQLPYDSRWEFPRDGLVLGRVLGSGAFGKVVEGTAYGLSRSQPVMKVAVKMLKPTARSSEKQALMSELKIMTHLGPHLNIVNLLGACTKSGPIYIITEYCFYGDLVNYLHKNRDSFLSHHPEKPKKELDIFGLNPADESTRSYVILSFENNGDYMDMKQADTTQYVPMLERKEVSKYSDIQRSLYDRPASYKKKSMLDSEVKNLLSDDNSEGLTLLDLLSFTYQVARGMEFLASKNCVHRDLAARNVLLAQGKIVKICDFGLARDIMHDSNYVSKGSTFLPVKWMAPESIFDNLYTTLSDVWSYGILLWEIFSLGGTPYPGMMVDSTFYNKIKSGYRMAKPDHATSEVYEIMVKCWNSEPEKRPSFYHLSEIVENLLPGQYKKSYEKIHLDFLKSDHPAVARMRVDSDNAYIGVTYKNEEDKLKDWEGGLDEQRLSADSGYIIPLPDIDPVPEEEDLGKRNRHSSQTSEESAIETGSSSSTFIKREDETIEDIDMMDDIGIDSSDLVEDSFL

[13] = biological target: Receptor-type tyrosine-protein kinase FLT3 (Homo sapiens) (UniProt P36888); test: Inhibition of recombinant FLT-3 (unknown origin) at 10 uM
[14] = biological target: Fibroblast growth factor receptor 2 (Homo sapiens) (UniProt P21802); test: Inhibition of recombinant FGFR-2 (unknown origin) at 10 uM
Chain of Fibroblast growth factor receptor 2 (Homo sapiens) (P21802 22-821 limits assumed): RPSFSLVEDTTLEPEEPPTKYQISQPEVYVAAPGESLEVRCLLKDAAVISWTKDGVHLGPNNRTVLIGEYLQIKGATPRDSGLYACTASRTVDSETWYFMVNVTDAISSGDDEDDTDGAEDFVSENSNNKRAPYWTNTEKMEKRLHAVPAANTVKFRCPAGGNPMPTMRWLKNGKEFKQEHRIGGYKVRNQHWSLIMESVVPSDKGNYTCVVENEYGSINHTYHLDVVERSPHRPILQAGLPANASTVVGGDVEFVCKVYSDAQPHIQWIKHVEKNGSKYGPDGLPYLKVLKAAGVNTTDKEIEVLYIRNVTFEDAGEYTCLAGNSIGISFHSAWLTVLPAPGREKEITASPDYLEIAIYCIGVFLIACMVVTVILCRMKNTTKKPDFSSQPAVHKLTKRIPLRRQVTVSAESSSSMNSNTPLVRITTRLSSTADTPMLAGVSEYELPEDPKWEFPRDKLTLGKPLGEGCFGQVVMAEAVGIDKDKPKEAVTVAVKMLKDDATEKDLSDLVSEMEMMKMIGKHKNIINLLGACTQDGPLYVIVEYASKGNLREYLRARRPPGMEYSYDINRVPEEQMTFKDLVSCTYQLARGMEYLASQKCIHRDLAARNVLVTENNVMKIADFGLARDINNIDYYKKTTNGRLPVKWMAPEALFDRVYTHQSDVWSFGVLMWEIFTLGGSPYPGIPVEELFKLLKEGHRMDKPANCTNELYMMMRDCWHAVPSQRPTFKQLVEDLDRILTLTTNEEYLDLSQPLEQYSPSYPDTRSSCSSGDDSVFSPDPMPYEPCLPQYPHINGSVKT

HUVEC [15] = test system: HUVEC
Description: as §1

[16] = biological target: Hepatocyte growth factor receptor (Homo sapiens) (UniProt P08581); details: at 10 µM
Description: Inhibition of recombinant MET (unknown origin) at 10 uM

Row | SMILES | GI50 (HepG2; Homo sapiens, HepG2) | GI50 (Huh-7; Homo sapiens, Huh-7) | GI50 (HUVEC [1]) | IC50 [2] | IC50 [3] | also measured
1 | CNC(=O)c1ccc(O[C@H]2CC[C@H](NC(=O)Nc3ccc(Cl)c(C(F)(F)F)c3)CC2)cc1 | > 25 µM | 16 µM | > 25 µM | – | – | –
2 | CNC(=O)c1cc(Oc2ccc(NC(=O)Nc3ccc(Cl)c(C(F)(F)F)c3)c(F)c2)ccn1 [REGORAFENIB] | – | – | – | 0.0005 µM | – | –
3 | CNC(=O)c1ccc(O[C@H]2CC[C@H](NC(=O)NC34CC5CC(CC(C5)C3)C4)CC2)cc1 | 7 µM | 5.5 µM | > 25 µM | – | > 10 µM | –
4 | CNC(=O)c1cccc(O[C@H]2CC[C@H](NC(=O)Nc3ccc(Cl)c(C(F)(F)F)c3)CC2)c1 | 6.5 µM | 7.5 µM | 11 µM | 0.001 µM | 0.293 µM | –
5 | CNC(=O)c1cc(Oc2ccc(NC(=O)Nc3ccc(OC(F)(F)F)cc3)cc2)ccn1 | 7 µM | 7 µM | > 25 µM | – | – | inhibition [4]: Active; IC50 [5]: > 5 µM
6 | O=C(NC12CC3CC(CC(C3)C1)C2)N[C@H]1CC[C@H](Oc2ccc(C(=O)O)cc2)CC1 | – | – | – | – | – | inhibition [6]: inactive; inhibition [7]: inactive; inhibition [8]: inactive; inhibition [9]: inactive; inhibition [10]: inactive; inhibition [11]: inactive; inhibition [12]: inactive; inhibition [13]: inactive; inhibition [14]: inactive
7 | O=C(Nc1ccc(OC(F)(F)F)cc1)N[C@H]1CC[C@H](Oc2ccc(C(=O)O)cc2)CC1 | – | – | – | – | – | inhibition [6]: inactive; inhibition [7]: inactive; inhibition [8]: inactive; GI50 (HepG2): 15 µM; inhibition [9]: inactive; GI50 (HUVEC [15]): > 25 µM; GI50 (Huh-7): 20 µM; inhibition [10]: inactive; inhibition [11]: inactive; inhibition [16]: inactive; inhibition [12]: inactive; inhibition [13]: inactive; inhibition [14]: inactive
8 | CCN(CC)CCNC(=O)c1c(C)[nH]c(/C=C2\C(=O)Nc3ccc(F)cc32)c1C [SUNITINIB] | – | – | – | > 10 µM | – | –
9 | CN(C)C(=O)c1cc(O[C@H]2CC[C@H](NC(=O)Nc3ccc(Cl)c(C(F)(F)F)c3)CC2)ccn1 | 10 µM | 8 µM | – | 0.0005 µM | > 10 µM | –
10 | CNC(=O)c1cc(O[C@H]2CC[C@H](NC(=O)Nc3ccc(OC(F)(F)F)cc3)CC2)ccn1 | 7 µM | 7 µM | > 25 µM | – | > 10 µM | –
11 | CNC(=O)c1ccc(O[C@H]2CC[C@H](NC(=O)Nc3ccc(Cl)c(C(F)(F)F)c3)CC2)cn1 | 7 µM | 8 µM | 10.5 µM | – | – | inhibition [4]: Active
12 | CS(=O)(=O)N1CCC(NC(=O)Nc2ccc(OC(F)(F)F)cc2)CC1 | > 25 µM | > 25 µM | > 25 µM | – | > 10 µM | –
13 | O=C(Nc1ccc(Cl)c(C(F)(F)F)c1)N[C@H]1CC[C@H](Oc2cccc(C(=O)O)c2)CC1 | > 25 µM | > 25 µM | 10.5 µM | 0.0086 µM | > 10 µM | –
14 | CNC(=O)c1cc(O[C@H]2CC[C@H](NC(=O)Nc3ccc(Cl)c(C(F)(F)F)c3)CC2)ccn1 | 7 µM | 8 µM | 11 µM | – | – | inhibition [4]: Active
15 | CNC(=O)c1ccc(O[C@H]2CC[C@H](NC(=O)Nc3ccc(OC(F)(F)F)cc3)CC2)cc1 | 7 µM | 5.5 µM | > 25 µM | – | > 10 µM | –
16 | O=C(Nc1ccc(Cl)c(C(F)(F)F)c1)N[C@H]1CC[C@H](Oc2ccc(C(=O)O)cc2)CC1 | > 25 µM | > 25 µM | 25 µM | 0.0005 µM | 4.3 µM | –
17 | CNC(=O)c1cc(Oc2ccc(NC(=O)NC34CC5CC(CC(C5)C3)C4)cc2)ccn1 | 10 µM | 7 µM | 25 µM | – | 1 µM | inhibition [4]: Active; IC50 [5]: > 5 µM
18 | CNC(=O)c1cc(O[C@H]2CC[C@@H](NC(=O)Nc3ccc(Cl)c(C(F)(F)F)c3)CC2)ccn1 | 7.5 µM | 8.5 µM | 10 µM | – | – | –
